Source: publication PMC11611271, “Rapid prediction of key residues for foldability by machine learning model enables the design of highly functional libraries with hyperstable constrained peptide scaffolds” (PLOS Computational Biology, 2024)
Where a SMILES comes first, the peptide text is derived from it. Bridges are numbered along the chain shown (N, C = ends).

Legend:
RSP02 = experiment: phage spot ELISA on RSP02; format: binding; details: for S/N: phage spot ELISA signal/noise; for S/N / ELISA: S3 Table sheet RSP02; for ELISA: phage spot ELISA signal
Source text: (§1) To determine the performance of the libraries for ligand discovery we chose a panel of eight protein targets, which have no structural homology and a wide mass range (Fig 7C). We screened these eight targets with solution panning strategy and two additional plate panning for CD8α/β and CD28, thus ten panning campaigns in total. We consider clones showing spot phage ELISA signal > 0.3 and signal/noise ratio > 2 as positive hits. At least one binding hit was discovered for nine out of the ten panning campaigns, surpassing the success rate of the best DCP scaffolds reported previously. We also obtained the NGS data for these screening and the ranking of clones for their enrichment along the rounds of screening was analyzed and considered the top-ranking clones as potential hits. Based on their sequence diversity we selected 16 potential hits spanning five protein targets for peptide synthesis in their linear form. Seven of these are hits with positive phage ELISA signal and nine were selected based on NGS ranking without spot ELISA available. Subsequently, we conducted in vitro folding experiments on these peptides in various buffers. We observed a strong propensity for spontaneous folding regardless of the buffer condition. All HCP hits tested successfully folded into three-disulfide-containing product within two days in a universal buffer system (PBS, pH 7.4, 50% DMSO) without the need for a redox pair, as shown in Fig 8A. The binding of these folded peptides to their respective target proteins was confirmed using SPR (Table 4 and S1 Data) and binding kinetics are exemplified by the high-affinity peptide 5ji4-CRD7-2 (see Fig 8B). Among seven selected ELISA-positive hits, all of them were successfully synthesized and in vitro folded with three disulfide bonds and five were proven to be validated binders by SPR (Table 4). Nine peptides selected from the NGS ranking were synthesized and folded with the expected number of disulfide bonds and five of them bound to their target with affinities in the μM range as determined by SPR (Table 4). In general, binding affinities for these SPR-validated initial hits are weak, with Kd values in the micromolar range and fast on- and off-rates. There are two exceptions with binding affinities in the nanomolar range.
(§2) The 5ji4 libraries were constructed following the Kunkel mutagenesis method and the solution panning protocol was followed as previously described. After four to five rounds of binding selection, while eluted pool was subjected to NGS analysis, individual phage clones were also picked and analyzed with phage spot ELISA. Positive clones were subjected to SANGER sequencing.

CD8α = experiment: phage spot ELISA on CD8α; format: binding; details: S3 Table sheet CD8α; for S/N: phage spot ELISA signal/noise; for ELISA: phage spot ELISA signal
Source text: as §1, §2

CD8α/β = experiment: phage spot ELISA on CD8α/β; format: binding; details: for S/N: phage spot ELISA signal/noise; for ELISA: phage spot ELISA signal
Source text: as §1, §2

VEGF_(8-109) [1] = molecular target: VEGF_(8-109) (UniProt P15692); experiment: ELISA; phage spot ELISA of individual phage clones after panning; clones with signal > 0.3 and signal/noise ratio > 2 counted as positive hits
VEGF_(8-109) [2] = molecular target: VEGF_(8-109) (UniProt P15692); experiment: SPR; Biacore S200, target on Series S Sensor Chip SA, peptide flowed, single-cycle kinetics, three-fold dilution series from approximately 100 μM, 25°C, 30 μl/min, HBS-EP with 5% DMSO; 1:1 binding (kinetic) model
CD8α-Fc [3] = molecular target: T1, CD8α-Fc (UniProt P01732 22-182); experiment: SPR; Biacore S200, Fc-fusion target on Sensor Chip Protein A, peptide flowed, single-cycle kinetics, three-fold dilution series from approximately 100 μM, 25°C, 30 μl/min, HBS-EP with 5% DMSO; steady-state equilibrium model; details: both partners purified
T1 construct: CD8 alpha chain, bought as Fc fusion; captured on a Protein A sensor chip by its Fc; source: bought: R&D, #AVI10927
T1 sequence (P01732 22-182): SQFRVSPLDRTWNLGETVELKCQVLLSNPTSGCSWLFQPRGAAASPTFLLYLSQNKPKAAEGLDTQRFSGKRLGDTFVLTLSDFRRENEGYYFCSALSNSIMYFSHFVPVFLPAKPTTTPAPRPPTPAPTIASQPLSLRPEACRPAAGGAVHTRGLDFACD

CD8α-Fc [4] = molecular target: T1, CD8α-Fc; experiment: SPR; Biacore S200, Fc-fusion target on Sensor Chip Protein A, peptide flowed, single-cycle kinetics, three-fold dilution series from approximately 100 μM, 25°C, 30 μl/min, HBS-EP with 5% DMSO; 1:1 binding (kinetic) model, or no binding seen; details: both partners purified
[5] = S3 Table sheet CD8αβ-1 (panning campaign 1)
[6] = S3 Table sheet CD8αβ-2 (panning campaign 2)

**Q.** `CSCC[C@@H]1NC(=O)[C@H](Cc2c[nH]c3ccccc23)NC(=O)[C@@H]2CSSC[C@H](NC(=O)[C@H](Cc3ccccc3)NC(=O)[C@H](Cc3c[nH]cn3)NC(=O)[C@H](CCC(=O)O)NC(=O)[C@H](CC(N)=O)NC(=O)[C@H](Cc3ccc(O)cc3)NC1=O)C(=O)N[C@@H](CCCNC(=N)N)C(=O)N[C@@H](C(C)C)C(=O)N[C@@H](Cc1c[nH]cn1)C(=O)N[C@H](C(=O)NCC(N)=O)CSSC[C@H](NC(=O)[C@@H]1CCCN1C(C)=O)C(=O)N[C@@H](CCC(=O)O)C(=O)N[C@H]1CSSC[C@H](NC(=O)[C@H](CCC(=O)O)NC(=O)[C@H](CCC(=O)O)NC(=O)[C@H](CO)NC(=O)[C@H](CO)NC(=O)[C@H](CO)NC(=O)[C@H](C(C)C)NC(=O)[C@H]([C@@H](C)O)NC(=O)[C@H](Cc3ccc(O)cc3)NC(=O)[C@H]([C@@H](C)O)NC(=O)[C@H](CCC(=O)O)NC(=O)CNC(=O)[C@H](CC(N)=O)NC(=O)[C@H](C(C)C)NC(=O)[C@H](CC(=O)O)NC1=O)C(=O)N[C@@H](CCC(=O)O)C(=O)N1CCC[C@H]1C(=O)N[C@@H](CC(C)C)C(=O)N2` [5ji4-RSP-1] (Ac-PCECDVNGETYTVSSSEECEPLCWMYNEHFCRVHCG-NH2; disulfide 2-35, 4-19, 23-31; N-terminus and C-terminus assumed) was tested. Which ELISA signal (RSP02; phage spot ELISA of the clone, positive hit: signal > 0.3 and signal/noise > 2) did it give?
**A.** 0.58

**Q.** And the ELISA s/n (RSP02; phage spot ELISA signal/noise ratio)?
**A.** 5.22

**Q.** “PCACDVNGETYTVSSSEECERLCTWWYFVVCRVHCG [CD8α clone 5, phage clone, 5JI4 library, CD8α panning]” was tested. Which S/N (CD8α) did it give?
**A.** 3.0

**Q.** And the ELISA (CD8α)?
**A.** 0.282

**Q.** How did the S/N (CD8α) turn out when “PCDCDVNGETYTVSSSEECEPLCLNWLSSLCRVHCG [CD8α clone 3, phage clone, 5JI4 library, CD8α panning]” was run?
**A.** 37.9

**Q.** What about the ELISA (CD8α) of the same molecule?
**A.** 3.371

**Q.** How did the S/N (CD8α) turn out when “PCECDLNGETYTVSSSEECERLCSWYIQYVCRVHCG [CD8α clone 6, phage clone, 5JI4 library, CD8α panning]” was run?
**A.** 2.2

**Q.** And the ELISA (CD8α)?
**A.** 0.194

**Q.** How did the S/N (CD8α/β; [5]) turn out when “PCECDVHGETYTVSSSEEGTSVPTWLISLCRVHCG [CD8αβ-1 clone 2, phage clone, 5JI4 library, CD8αβ-1 panning]” was run?
**A.** 34.8

**Q.** And the ELISA (CD8α/β; [5])?
**A.** 3.031

**Q.** With “PCECDVNGETYTVSSSEECEPLCWMYNEHFCRVHCG [RSP02 clone 6, phage clone, 5JI4 library, RSP02 panning]” as the molecule, how does the S/N (RSP02) read?
**A.** 8.917

**Q.** And the ELISA (RSP02)?
**A.** 0.856

**Q.** With “PCECDVNGETYTVSSSEECEQDSDCLAGWVCRVHCG [CD8α clone 7, phage clone, 5JI4 library, CD8α panning]” as the molecule, how does the S/N (CD8α) read?
**A.** 34.2

**Q.** And the ELISA (CD8α)?
**A.** 3.252

**Q.** How did the S/N (CD8α) turn out when “PCECDVNGETYTVSSSEECERCQDWLFYLCRVHCG [CD8α clone 4, phage clone, 5JI4 library, CD8α panning]” was run?
**A.** 35.6

**Q.** And the ELISA (CD8α)?
**A.** 3.525

**Q.** Which results are given for “PCECDVNGETYTVSSSEECGRLCQYWFIMLCRVHCG [CD8α clone 2, phage clone, 5JI4 library, CD8α panning]”?
**A.** S/N (CD8α): 38.5; ELISA (CD8α): 3.391

**Q.** What does the source list for “PCECDYPVYHDDYKSSEECERLCRKLGVTNCRVHCG [CD8αβ-2 clone 1, phage clone, 5JI4 library, CD8αβ-2 panning]”?
**A.** S/N (CD8α/β; [6]): 27.2; ELISA (CD8α/β; [6]): 3.534

**Q.** With “PCECEQPYRDDPDKSSEECERLCRKLGVTNCRVHCG [RSP02 clone 4, phage clone, 5JI4 library, RSP02 panning]” as the molecule, how does the S/N (RSP02) read?
**A.** 1.788

**Q.** What about the ELISA (RSP02) of the same molecule?
**A.** 0.177

**Q.** With “PCECGPYHDDMDKTSSEECERLCRKLGVTNCRVHCG [CD8αβ-2 clone 2, phage clone, 5JI4 library, CD8αβ-2 panning]” as the molecule, how does the S/N (CD8α/β; [6]) read?
**A.** 2.4

**Q.** And the ELISA (CD8α/β; [6])?
**A.** 0.296

**Q.** What does the source list for “PCECIVRWTTKQLESSEECERLCRKLGVTNCRVHCG [RSP02 clone 2, phage clone, 5JI4 library, RSP02 panning]”?
**A.** S/N (RSP02): 1.515; ELISA (RSP02): 0.2

**Q.** Which S/N (CD8α/β; [6]) does the source give for “PCECLMIAVMLVRPSSEECERLCRKLGVTNCRVHCG [CD8αβ-2 clone 3, phage clone, 5JI4 library, CD8αβ-2 panning]” here?
**A.** 1.6

**Q.** And the ELISA (CD8α/β; [6])?
**A.** 0.223

**Q.** What does the source list for “PCECQPMSNWFDMISSEECERLCRKLGVTNCRVHCG [RSP02 clone 3, phage clone, 5JI4 library, RSP02 panning]”?
**A.** S/N (RSP02): 0.8496; ELISA (RSP02): 0.192

**Q.** What does the source list for “PCECTYKDDWQKGASSEECERLCRKLGVTNCRVHCG [RSP02 clone 1, phage clone, 5JI4 library, RSP02 panning]”?
**A.** S/N (RSP02): 1.427; ELISA (RSP02): 0.204

**Q.** With “PCECVRLSTGRYVKSSEECERLCRKLGVTNCRVHCG [RSP02 clone 5, phage clone, 5JI4 library, RSP02 panning]” as the molecule, how does the S/N (RSP02) read?
**A.** 1.706

**Q.** What about the ELISA (RSP02) of the same molecule?
**A.** 0.216

**Q.** “PSECPNPPFEVRTWSSEECERLCRKLGVTNCVCG [CD8αβ-1 clone 1, phage clone, 5JI4 library, CD8αβ-1 panning]” was tested. Which S/N (CD8α/β; [5]) did it give?
**A.** 18.5

**Q.** What about the ELISA (CD8α/β; [5]) of the same molecule?
**A.** 1.938

**Q.** How did the phage spot ELISA signal (VEGF_(8-109) [1]) turn out when PCECFMYDILVGLASSEECERLCRKLGVTNCRVHCG [5ji4-VEGF-2 displayed on M13 phage] was run?
**A.** 4.71

**Q.** What about the phage spot ELISA signal/noise (s/n) (VEGF_(8-109) [1]) of the same molecule?
**A.** 44.5

**Q.** How did the Kd (VEGF_(8-109) [2]) turn out when PCECFMYDILVGLASSEECERLCRKLGVTNCRVHCG [5ji4-VEGF-2] was run?
**A.** 6.8 µM

**Q.** Which phage spot ELISA signal (VEGF_(8-109) [1]) does the source give for PCECDVNVETYTVSSSEECKRLCWGFGQSDCRVHCG [5ji4-VEGF-3 displayed on M13 phage] here?
**A.** 3.07

**Q.** And the phage spot ELISA signal/noise (s/n) (VEGF_(8-109) [1])?
**A.** 32.2

**Q.** For PCECDVNVETYTVSSSEECKRLCWGFGQSDCRVHCG [5ji4-VEGF-3], which Kd (VEGF_(8-109) [2]) is on record?
**A.** 0.12 µM

B1: 5ji4-CD8-20 (peptide)
chain: PCECDVNGETYTVSSSEECERLCVWWLSTVCRVPCG
notes: clone from the 5JI4 scaffold phage libraries, picked by NGS ranking; free N- and C-termini; three disulfide bonds; source: synthetic peptide (CSBio), folded in vitro, HPLC purified
**Q.** With B1 as the molecule, how does the Kd (CD8α-Fc [3]) read?
**A.** 23 ± 7 µM

B2: 5ji4-CD8-22 (peptide)
chain: PCECLVTPYKDDYKSSEECERLCVWWLSTVCRVPCG
notes: as for B1
**Q.** With B2 as the molecule, how does the Kd (CD8α-Fc [3]) read?
**A.** 76.3 ± 35.7 µM

B3: 5ji4-CD8-2 (peptide)
chain: H-PCECVWESFAHLPWSSEECERLCRKLGVTNCVCG-OH
modifications: disulfide (positions not given here); also: three disulfide bonds, pairing not given here
**Q.** Which Kd (CD8α-Fc [4]) does the source give for B3 here?
**A.** 4.2 ± 4.3 µM

B4: 5ji4-CD8-21 (peptide)
chain: PCECVWESFAHLPWSSEECERLCLNWLSSLCRVHCG
notes: as for B1
**Q.** For B4, which Kd (CD8α-Fc [4]) is on record?
**A.** 6 ± 2.2 µM
